In article PMC11510191, “Exploring Benzo[h]chromene Derivatives as Agents against Protozoal and Mycobacterial Infections” (Pharmaceuticals, 2024):
Values after ≈ are worked out from the molar mass of the structure shown.

Tests used:
T. cruzi epimastigotes = experiment: Trypanocidal activity on T. cruzi epimastigotes (CL-B5 lacZ, CPRG); format: cell-based, Trypanosoma cruzi clone CL-B5; settings: for IC50: Trypanosoma cruzi, 72 h, epimastigotes, read-out: Trypanocidal Activity IC50 T. cruzi; for Selectivity Index L929/ T. cruzi: SI = CC50 L929/IC50 parasites
Procedure: For in vitro studies of T. cruzi. the clone CL-B5 was used. Parasites were stably transfected with the Escherichia coli β-galactosidase gene (lacZ), provided by Facultad de Farmacia (Universidad Complutense de Madrid). Epimastigotes were grown at 28 °C in liver infusion tryptose broth (Difco, Detroit, MI, USA) with 10% fetal bovine serum (FBS) (Gibco, Carlsbad, CA, USA), penicillin (Ern S.A., Barcelona, Spain), and streptomycin (Reig Jofré S.A., Barcelona. Spain), as described previously, and harvested during the exponential growth phase. Briefly, the screening assay was performed in 96-well microplates (Sarstedt, Inc., Newton, NC, USA) with cultures that had not reached the stationary phase. Briefly, epimastigotes were seeded at 2 × 10^5 parasites/mL in 200 µL growth media. The plates were then incubated with the respective compounds at 28 °C for 72 h. Afterwards, 50 µL of CPRG solution was added, resulting in a final concentration of 200 µM. The plates were incubated at 37 °C for an additional 4 h and then read at 595 nm. Each concentration was tested in triplicate. […] These values were calculated from the sigmoidal dose–response curve adjustment using the statistical software program Graph-Pad Prims 3.0. Benznidazole was used as a reference drug.

[1] = Cytotoxicity on L929 fibroblasts (resazurin); settings: mouse
[2] = tested on: Leishmania infantum (L. i) promastigotes; experiment: Leishmanicidal activity on L. infantum promastigotes (resazurin); settings: for IC50: Leishmania infantum, 48 h, read-out: Leishmanicidal Activity IC50—L. i
Procedure: (§1) The culture of L. braziliensis (MHOM/CO/88/UA301) and L. infantum (MCAN/ES/92/BCN83) was obtained from the Facultad de Farmacia, Universidad Complutense de Madrid, Spain.
(§2) The maintenance of the strains, the form of cultivation, and the isolation of shape promastigota followed the procedures described by Roldós et al. [8]. The promastigotes were grown at 22 °C in Schneider’s Drosophila medium supplemented with 20% FBS. The assay was performed using a modification of a previous method [47]. Promastigotes (2 × 10^6 parasites/well) were cultured in 96-well plastic plates. Compounds were dissolved in dimethylsulfoxide (DMSO). Different dilutions of the compounds up to a 200 µL final volume were added. After 48 h at 26 °C, 20 µL of 2 mM resazurin solution was added and the oxidation–reduction was quantified at 570 and 600 nm. The solution of resazurin was prepared at 2.5 mM in phosphate-buffered solution (PBS), pH 7.4, and filtered through 0.22 µM prior to use. All tests were carried out in triplicate. Resazurin sodium salt was obtained from Sigma–Aldrich (St. Louis, MO, USA) and stored at 4 °C protected from light. The efficacy of each compound was estimated by calculating the IC50 values.

[3] = tested on: Leishmania brazilensis (L. b) promastigotes; experiment: Leishmanicidal activity on L. braziliensis promastigotes (resazurin); settings: for IC50: Leishmania, 48 h, read-out: Leishmanicidal Activity IC50—L. b
Procedure: as §1, §2

B. cereus (G+) = experiment: MIC broth microdilution; format: cell-based; settings: Bacillus cereus, 24 h
P. aeruginosa (G−) = experiment: MIC broth microdilution; format: cell-based; settings: Pseudomonas aeruginosa, 24 h
L. innocua (G+) = experiment: MIC broth microdilution; format: cell-based; settings: Listeria innocua, 24 h
S. typhi (G−) = experiment: MIC broth microdilution; format: cell-based; settings: Salmonella enterica, 24 h
M. luteus (G+) = experiment: MIC broth microdilution; format: cell-based; settings: Micrococcus luteus, 24 h
E. faecalis (G+) = experiment: MIC broth microdilution; format: cell-based; settings: Enterococcus faecalis, 24 h
L. monocytogenes (G+) = experiment: MIC broth microdilution; format: cell-based; settings: Listeria monocytogenes, 24 h
S. aureus (G+) = experiment: MIC broth microdilution; format: cell-based; settings: Staphylococcus aureus, 24 h
E. coli (G−) = experiment: MIC broth microdilution; format: cell-based; settings: Escherichia coli, 24 h
M. abscessus LIID-03 = experiment: MIC broth microdilution; format: cell-based; settings: Mycobacteroides abscessus, LIID03, 72 h
M. abscessus LIID-01 = experiment: MIC broth microdilution; format: cell-based; settings: Mycobacteroides abscessus, LIID01, 72 h
M. fortuitum LIID-01 = experiment: MIC broth microdilution; format: cell-based; settings: Mycolicibacterium fortuitum, LIID01, 72 h
[4] = tested on: M. intracellulare LIID-01; experiment: MIC broth microdilution; format: cell-based; settings: Mycobacterium intracellulare, LIID01
M. abscessus LIID-02 = experiment: MIC broth microdilution; format: cell-based; settings: Mycobacteroides abscessus, LIID02, 72 h
[5] = tested on: M. intracellulare LIID-02; experiment: MIC broth microdilution; format: cell-based; settings: Mycobacterium intracellulare, LIID02

Row | Structure (SMILES) | IC50 (T. cruzi epimastigotes) | CC50 at 24 h [1] | IC50 [2] | IC50 [3] | Selectivity Index L929/ T. cruzi (T. cruzi epimastigotes) | other results
1 | CC(=O)O[C@@H]1[C@@H](OC(C)=O)[C@H](OC(C)=O)CO[C@H]1n1cc(CCC(=O)Oc2c3c(c4ccccc4c2OC(=O)CCc2cn([C@@H]4OC[C@@H](OC(C)=O)[C@H](OC(C)=O)[C@H]4OC(C)=O)nn2)OC(C)(C)C=C3)nn1 [Compound 2e] | > 256 µM | > 256 µM | > 256 µM | > 256 µM | – | –
2 | Cc1ccc(-n2cc(CCC(=O)Oc3c4c(c5ccccc5c3OC(=O)CCc3cn(-c5ccc(C)cc5)nn3)OC(C)(C)C=C4)nn2)cc1 [Compound 2d] | > 256 µM | > 256 µM | > 256 µM | > 256 µM | – | –
3 | CC1(C)C=Cc2c(OC(=O)CCc3cn(-c4ccccc4)nn3)c(OC(=O)CCc3cn(-c4ccccc4)nn3)c3ccccc3c2O1 [Compound 2a] | 68.7 µM | > 256 µM | > 256 µM | > 256 µM | >4 | –
4 | CC1(C)C=Cc2c(OC(=O)CCCc3cn(Cc4ccc(Br)cc4)nn3)c(OC(=O)CCCc3cn(Cc4ccc(Br)cc4)nn3)c3ccccc3c2O1 [Compound 3i] | > 256 µM | > 256 µM | > 256 µM | > 256 µM | – | –
5 | CC1(C)C=Cc2c(OC(=O)CCc3cn(Cc4ccc([N+](=O)[O-])cc4)nn3)c(OC(=O)CCc3cn(Cc4ccc([N+](=O)[O-])cc4)nn3)c3ccccc3c2O1 [Compound 2h] | > 256 µM | > 256 µM | > 256 µM | > 256 µM | – | –
6 | Cc1ccc(-n2cc(CCCC(=O)Oc3c4c(c5ccccc5c3OC(=O)CCCc3cn(-c5ccc(C)cc5)nn3)OC(C)(C)C=C4)nn2)cc1 [Compound 3d] | > 256 µM | > 256 µM | > 256 µM | > 256 µM | – | –
7 | CNC(C)C1CCC(N)C(OC2C(N)CC(N)C(OC3OCC(C)(O)C(NC)C3O)C2O)O1 (stereo not shown) [Gentamicin, reference compound] | – | – | – | – | – | MIC (B. cereus (G+)): 0.78 µg/mL (≈ 1.63 µM); MIC (P. aeruginosa (G−)): 0.78 µg/mL (≈ 1.63 µM); MIC (L. innocua (G+)): 1.56 µg/mL (≈ 3.27 µM); MIC (S. typhi (G−)): 0.1 µg/mL (≈ 0.209 µM); MIC (M. luteus (G+)): 0.78 µg/mL (≈ 1.63 µM); MIC (E. faecalis (G+)): 0.78 µg/mL (≈ 1.63 µM); MIC (L. monocytogenes (G+)): 0.2 µg/mL (≈ 0.419 µM); MIC (S. aureus (G+)): 0.1 µg/mL (≈ 0.209 µM); MIC (E. coli (G−)): 0.2 µg/mL (≈ 0.419 µM)
8 | C#CCCCC(=O)Oc1c2c(c3ccccc3c1OC(=O)CCCC#C)OC(C)(C)C=C2 [Compound 1b] | 37.3 µM | 128 µM | 30.5 µM | 6.7 µM | 3 | Selectivity Index L929/ L. i ([2]; SI = CC50 L929/IC50 parasites): 4; Selectivity Index L929/ L. b ([3]; SI = CC50 L929/IC50 parasites): 19
9 | O=C(Cn1ccnc1[N+](=O)[O-])NCc1ccccc1 [Benznidazole, reference compound] | 54.7 µM | 769 µM | – | – | 14.0 | –
10 | CC1(C)C=Cc2c(OC(=O)CCCc3cn(-c4cccc(Cl)c4)nn3)c(OC(=O)CCCc3cn(-c4cccc(Cl)c4)nn3)c3ccccc3c2O1 [Compound 3g] | 146 µM | > 384 µM | > 256 µM | > 256 µM | >3 | –
11 | C[C@@H](O)[C@H]1C(=O)N2C(C(=O)O)=C(SCCN=CN)C[C@H]12 [Imipenem, reference compound] | – | – | – | – | – | MIC (M. abscessus LIID-03): 8 µg/mL (≈ 26.7 µM); MIC (M. abscessus LIID-01): 32 µg/mL (≈ 107 µM); MIC (M. fortuitum LIID-01): 4 µg/mL (≈ 13.4 µM); MIC [4]: 1 µg/mL (≈ 3.34 µM); MIC (M. abscessus LIID-02): 32 µg/mL (≈ 107 µM); MIC [5]: > 64 µg/mL
